Source: patent publication US11634396B2 (priority 2021, dated 2023)

Each molecule was assayed against human mOR (Homo sapiens (Human), UniProt P35372) (assay: cell-based). Settings: not given.
human mOR, sequence (P35372 whole entry): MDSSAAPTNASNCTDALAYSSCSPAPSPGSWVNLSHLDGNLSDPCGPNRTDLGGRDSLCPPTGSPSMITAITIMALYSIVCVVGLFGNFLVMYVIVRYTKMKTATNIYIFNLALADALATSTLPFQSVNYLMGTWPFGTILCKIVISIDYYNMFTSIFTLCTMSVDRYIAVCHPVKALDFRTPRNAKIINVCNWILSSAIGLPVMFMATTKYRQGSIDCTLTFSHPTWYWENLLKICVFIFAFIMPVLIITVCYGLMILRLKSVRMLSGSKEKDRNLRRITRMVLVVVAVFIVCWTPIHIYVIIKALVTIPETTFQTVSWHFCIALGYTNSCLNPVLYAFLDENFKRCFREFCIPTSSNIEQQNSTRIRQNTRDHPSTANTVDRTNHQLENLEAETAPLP
Method: CHO Tag-lite human mOR stable cell line from Cisbio (NCBI accession number: NM_000914.3, Bedford, Mass.) were seeded and grown to approximately 80% confluence in Ham F-12 with 10% FBS, 50 U/ml penicillin, 50 μg/ml streptomycin, 2 mM Hepes, and 1 mg/ml geneticin (Invitrogen, Carlsbad, Calif.). Cells were then harvested using accutase (Corning. Coming, N.Y.), centrifuged at 1300 RPM for 5 min, and plated at 5000 cells per 5 μL per well in a 5× dilution of stimulation buffer consisting of the HTRF cAMP Gi kit, water and IBMX at 0.5 mM (Cisbio, Bedford, Mass.) in white HTRF low volume 384 well plates (Cisbio, Bedford, Mass.). Plates were then incubated at 37° C. in 5% CO2 for 10 minutes. For the agonist assay, forskolin was added to a final concentration of 4 μM. […] Test compounds were dissolved in DMSO and water, and then serially diluted to working concentrations such that the concentration of DMSO was less than 0.1%. Diluted test compounds were added at 2.5 μL per well, and plates were incubated at 37° C., and 5% CO2 for 15 minutes, and then at room temperature for 15 minutes. Next 5 μl/well of cAMP Eu-cryptate and 5 μl/well of anti-cAMP-d2 (both diluted 1:20 in lysis buffer) were added, and plates were incubated at room temperature for 1 hour. Following incubation, plates were read in a Synergy Neo2 multi-mode reader (Biotek, Winooski, Vt.). […] For the agonist assay, data was normalized using the maximal DAMGO response. Measurements were performed in triplicate and the dose response was fit using nonlinear regression.
For `CN(C)[C@H](CNC(=O)C[C@H](c1ccsc1)C1(C(F)(F)F)CC1)Cc1ccc(O)cc1` [Compound 294, (S)-N-((S)-2-(dimethylamino)-3-(4-hydroxyphenyl)propyl)-3-(thiophen-3-yl)-3-(1-(trifluoromethyl)cyclopropyl)propanamide], the IC50 was under 0.3 µM. Work on `CN(C)[C@H](CNC(=O)C[C@H](c1ccccc1)C1(C(F)(F)F)CC1)Cc1ccc2c(c1)CC(=O)N2` [Compound 189, (R)-N-((S)-2-(dimethylamino)-3-(2-oxoindolin-5-yl)propyl)-3-phenyl-3-(1-(trifluoromethyl)cyclopropyl)propanamide] yielded an IC50 of under 0.3 µM. For `Cc1cncc([C@@H](CC(=O)NC[C@H](Cc2ccc(O)cc2)N(C)C)C2(C(F)(F)F)CC2)c1` [Compound 300, (R)-N-((S)-2-(dimethylamino)-3-(4-hydroxyphenyl)propyl)-3-(5-methylpyridin-3-yl)-3-(1-(trifluoromethyl)cyclopropyl)propanamide], the IC50 was under 0.3 µM. For `CN(C)[C@H](CNC(=O)C[C@H](c1ccncc1)C1(C(F)(F)F)CC1)Cc1ccc(O)c(Cl)c1` [Compound 278, (R)-N-((S)-3-(3-chloro-4-hydroxyphenyl)-2-(dimethylamino)propyl)-3-(pyridin-4-yl)-3-(1-(trifluoromethyl)cyclopropyl)propanamide], the IC50 was under 0.3 µM. For `CC[C@H](CC(=O)NC[C@H](Cc1c(C)cc(O)cc1C)N(C)C)c1cnc(C)s1` [Compound 252, (R)-N-((S)-2-(dimethylamino)-3-(4-hydroxy-2,6-dimethylphenyl)propyl)-3-(2-methylthiazol-5-yl)pentanamide], the IC50 was under 0.3 µM. Work on `Cc1ncc([C@@H](CC(=O)NC[C@H](Cc2ccc3[nH]c(=O)oc3c2C)N(C)C)C2(C(F)(F)F)CC2)cn1` [Compound 169, (R)-N-((S)-2-(dimethylamino)-3-(7-methyl-2-oxo-2,3-dihydrobenzo[d]oxazol-6-yl)propyl)-3-(2-methylpyrimidin-5-yl)-3-(1-(trifluoromethyl)cyclopropyl)propanamide] yielded an IC50 of over 3 µM. For `CN(C)[C@H](CNC(=O)C[C@H](c1cccnc1)C1(C(F)(F)F)CC1)Cc1ccc2cn[nH]c2c1` [Compound 232, (R)-N-((S)-2-(dimethylamino)-3-(1H-indazol-6-yl)propyl)-3-(pyridin-3-yl)-3-(1-(trifluoromethyl)cyclopropyl)propanamide], the IC50 was 0.3 to 3 µM. Molecule `CN(C)[C@H](CNC(=O)C[C@H](c1cccnc1)C1CC1)Cc1ccc(O)c(Cl)c1` [Compound 281, (S)-N-((S)-3-(3-chloro-4-hydroxyphenyl)-2-(dimethylamino)propyl)-3-cyclopropyl-3-(pyridin-3-yl)propanamide] has an IC50 of under 0.3 µM. `COc1ccc(C(CC(=O)NC[C@H](Cc2c(C)cc(O)cc2C)N(C)C)C2(C(F)(F)F)CC2)cn1` (stereo partly drawn) [Compound 244, N-((S)-2-(dimethylamino)-3-(4-hydroxy-2,6-dimethylphenyl)propyl)-3-(6-methoxypyridin-3-yl)-3-(1-(trifluoromethyl)cyclopropyl) propanamide] gave an IC50 of under 0.3 µM. Molecule `CN(C)[C@H](CNC(=O)C[C@H](CC1CC1)c1ccncc1)Cc1ccc(C(N)=O)c(F)c1` [Compound 62, 4-((S)-3-((S)-4-cyclopropyl-3-(pyridin-4-yl)butanamido)-2-(dimethylamino)propyl)-2-fluorobenzamide] has an IC50 of under 0.3 µM. `CN(C)[C@H](CNC(=O)CC(c1cccnc1)C1(C(F)(F)F)CC1)Cc1ccc(O)c(Cl)c1` (stereo partly drawn) [Compound 287, N-((S)-3-(3-chloro-4-hydroxyphenyl)-2-(dimethylamino)propyl)-3-(pyridin-3-yl)-3-(1-(trifluoromethyl)cyclopropyl)propanamide] was tested, and the IC50 was under 0.3 µM. `CNC(=O)c1ccc(C[C@@H](CNC(=O)C[C@H](c2cccnc2)C2(C(F)(F)F)CC2)N(C)C)c(C)c1` [Compound 131, 4-((S)-2-(dimethylamino)-3-((R)-3-(pyridin-3-yl)-3-(1-(trifluoromethyl)cyclopropyl)propanamido)propyl)-N,3-dimethylbenzamide] gave an IC50 of under 0.3 µM. `Cc1ncc([C@@H](CC(=O)NC[C@H](Cc2ccc(C(N)=O)c(F)c2)N(C)C)C2(C(F)(F)F)CC2)s1` [Compound 59, 4-((S)-2-(dimethylamino)-3-((S)-3-(2-methylthiazol-5-yl)-3-(1-(trifluoromethyl)cyclopropyl)propanamido)propyl)-2-fluorobenzamide] gave an IC50 of under 0.3 µM. For `Cc1cc([C@@H](CC(=O)NC[C@H](Cc2ccc(C(N)=O)c(F)c2)N(C)C)C2(C(F)(F)F)CC2)cs1` [Compound 52, 4-((S)-2-(dimethylamino)-3-((S)-3-(5-methylthiophen-3-yl)-3-(1-(trifluoromethyl)cyclopropyl)propanamido)propyl)-2-fluorobenzamide], the IC50 was under 0.3 µM. With `CN(C)[C@H](CNC(=O)C[C@H](c1ccsc1)C1(C(F)(F)F)CC1)Cc1ccc(C(N)=O)c(F)c1` [Compound 54, 4-((S)-2-(dimethylamino)-3-((S)-3-(thiophen-3-yl)-3-(1-(trifluoromethyl)cyclopropyl)propanamido)propyl)-2-fluorobenzamide] the IC50 was over 3 µM. In the case of `CNC(=O)c1ccc(C[C@@H](CNC(=O)CC(c2cccnc2)C2(C(F)(F)F)CC2)N(C)C)c(Cl)c1` (stereo partly drawn) [Compound 119, 3-chloro-4-((2S)-2-(dimethylamino)-3-(3-(pyridin-3-yl)-3-(1-(trifluoromethyl)cyclopropyl)propanamido)propyl)-N-methylbenzamide], the IC50 is reported as under 0.3 µM. With `Cc1c(C[C@@H](CNC(=O)C[C@@H](CC2CC2)c2cccnc2)N(C)C)ccc2c1CC(=O)N2` [Compound 179, (R)-4-cyclopropyl-N-((S)-2-(dimethylamino)-3-(4-methyl-2-oxoindolin-5-yl)propyl)-3-(pyridin-3-yl)butanamide] the IC50 was under 0.3 µM. `CNC(=O)c1ccc(C[C@@H](CNC(=O)CC(c2ccncc2)C2(C(F)(F)F)CC2)N(C)C)c(C)c1` (stereo in doubt) [Compound 130, 4-((S)-2-(dimethylamino)-3-((S)-3-(pyridin-4-yl)-3-(1-(trifluoromethyl)cyclopropyl)propanamido)propyl)-N,3-dimethylbenzamide] showed an IC50 of under 0.3 µM. For `CN(C)[C@H](CNC(=O)C[C@@H](CC1CC1)c1cncnc1)Cc1ccc(O)cc1` [Compound 307, (R)-4-cyclopropyl-N-((S)-2-(dimethylamino)-3-(4-hydroxyphenyl)propyl)-3-(pyrimidin-5-yl)butanamide], the IC50 was under 0.3 µM. `Cc1ncc([C@@H](CC(=O)NC[C@H](Cc2ccc(C(N)=O)c(F)c2Cl)N(C)C)C2(C(F)(F)F)CC2)s1` [Compound 16, 3-chloro-4-[(2S)-2-(dimethylamino)-3-[(3S)-3-(2-methyl-1,3-thiazol-5-yl)-3-[1-(trifluoromethyl)cyclopropyl]propanamido]propyl]-2-fluorobenzamide] was tested, and the IC50 was under 0.3 µM. Work on `CN(C)[C@H](CNC(=O)C[C@H](c1cccnc1)C1(C)CC1)Cc1ccc(O)cc1C(F)(F)F` [Compound 256, (S)-N-((S)-2-(dimethylamino)-3-(4-hydroxy-2-(trifluoromethyl)phenyl)propyl)-3-(1-methylcyclopropyl)-3-(pyridin-3-yl)propanamide] yielded an IC50 of under 0.3 µM. Molecule `CNC(=O)c1ccc(C[C@@H](CNC(=O)C[C@H](c2ccc(C)nc2)C2(C(F)(F)F)CC2)N(C)C)c(C)c1F` [Compound 125, 4-((S)-2-(dimethylamino)-3-((R)-3-(6-methylpyridin-3-yl)-3-(1-(trifluoromethyl)cyclopropyl)propanamido)propyl)-2-fluoro-N,3-dimethylbenzamide] has an IC50 of under 0.3 µM.

Same assay, conditions: CHO Tag-lite human mOR stable cell line; forskolin 4 μM and DAMGO at EC90; read-out: mOR cAMP Antagonist Assay IC50
Molecule `CN(C)[C@H](CNC(=O)CC(c1ccncc1)C1(C(F)(F)F)CC1)Cc1ccc(C(N)=O)c(F)c1` (stereo partly drawn) [Compound 70, 4-[(2S)-2-(dimethylamino)-3-[3-(pyridin-4-yl)-3-[1-(trifluoromethyl)cyclopropyl]propanamido]propyl]-2-fluorobenzamide] has an IC50 of over 3 µM. `CC(C)[C@H](CC(=O)NC[C@H](Cc1ccc2[nH]ncc2c1)N(C)C)c1cccnc1` [Compound 206, (S)-N-((S)-2-(dimethylamino)-3-(1H-indazol-5-yl)propyl)-4-methyl-3-(pyridin-3-yl)pentanamide] gave an IC50 of 0.3 to 3 µM. Work on `CNC(=O)c1cc(C)c(C[C@@H](CNC(=O)C[C@@H](CC(C)C)c2ccccn2)N(C)C)c(C)c1` [Compound 108, 4-((S)-2-(dimethylamino)-3-((R)-5-methyl-3-(pyridin-2-yl)hexanamido)propyl)-N,3,5-trimethylbenzamide] yielded an IC50 of over 3 µM. `CN(C)[C@H](CNC(=O)C[C@@H](CC1CC1)c1cccnc1)Cc1ccc2[nH]ncc2c1` [Compound 212, (R)-4-cyclopropyl-N-((S)-2-(dimethylamino)-3-(1H-indazol-5-yl)propyl)-3-(pyridin-3-yl)butanamide] gave an IC50 of over 3 µM.

Same assay, conditions: read-out: mOR cAMP Antagonist Assay IC50
`CN(C)[C@H](CNC(=O)C[C@H](c1ccncc1)C1(C(F)(F)F)CC1)Cc1ccc2[nH]c(=O)ccc2c1` [Compound 103, (R)-N-((S)-2-(dimethylamino)-3-(2-oxo-1,2-dihydroquinolin-6-yl)propyl)-3-(pyridin-4-yl)-3-(1-(trifluoromethyl)cyclopropyl) propanamide] gave an IC50 of over 3 µM.
